Data from patent US11629171B2, “Beta-hairpin peptidomimetics” (POLYPHOR AG, priority 2017, dated 2023).
Values after ≈ are worked out from the molar mass of the structure shown. Where a SMILES comes first, the peptide text is derived from it. Bridges are numbered along the chain shown (N, C = ends). Roman numbers before positions name the chains, in order. [ ]: non-standard residue; d: D form. Thr(ol) = C[C@@H](O)[C@H](N)CO; Tle = CC(C)(C)[C@H](N)C(=O)O; Hiv = CC(C)[C@H](O)C(=O)O; dDab = NCC[C@@H](N)C(=O)O; hSer = N[C@@H](CCO)C(=O)O; Dab = NCC[C@H](N)C(=O)O

How the values were obtained:
Assay type in all cases: cell-based
[1] = tested on: Acinetobacter baumannii 872842; details: 872842
Summary of the method: (§1)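 Standard CLSI microdilution testing: bacterial suspensions standardized against 0.5 McFarland to about 10^6 CFU/mL in MH-II broth meet serially halved peptide concentrations in broth containing 0.002% polysorbate 80; incubation lasts 18-20 h at 35° C before the MIC is scored.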

[2] = tested on: Acinetobacter baumannii DSM 30008; details: DSM 30008
Summary of the method: as §1

[3] = tested on: Enterobacter cloacae 848840; details: 848840
Summary of the method: as §1

Escherichia coli 926415 = details: 926415
Summary of the method: as §1

[4] = tested on: Escherichia coli ATCC 25922; details: ATCC 25922
Summary of the method: as §1

[5] = tested on: Klebsiella pneumoniae 968733; details: 968733
Summary of the method: as §1

[6] = tested on: Klebsiella pneumoniae SSI #3010; details: SSI #3010
Summary of the method: as §1

[7] = tested on: Pseudomonas aeruginosa ATCC 27853; details: ATCC 27853
Summary of the method: as §1

[8] = tested on: human red blood cells (hRBC); assay: Hemolysis; details: red cells of human, 1 h, 200
Summary of the method: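 Percent lysis of human red cells was derived from OD540 of the supernatant, referenced to 2% Triton X-100, after a 1 h, 37° C incubation of 20% (v/v) cells with 200 μg/mL peptide.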

Structure (SMILES) | MIC [1] [µg/mL] | MIC [2] [µg/mL] | MIC [3] [µg/mL] | MIC (Escherichia coli 926415) [µg/mL] | MIC [4] [µg/mL] | MIC [5] [µg/mL] | MIC [6] [µg/mL] | MIC [7] [µg/mL] | Hemolysis at 200 μg/mL [8] [%]
CC(C)C[C@@H]1NC(=O)[C@@H](CC(C)C)NC(=O)[C@H](CCN)NC(=O)[C@@H](NC(=O)[C@H](CCN)NC(=O)[C@@H](NC(=O)[C@H](CCN)NC(=O)CC[C@@H]2NC(=O)[C@H](CCN)NC(=O)[C@H](Cc3ccc(O)cc3)NC(=O)[C@@H](NC(=O)[C@@H](O)C(C)C)CSSC[C@@H](C(=O)N[C@H](CO)[C@@H](C)O)NC(=O)[C@H](C(C)(C)C)NC(=O)[C@H](CO)NC(=O)[C@H](Cc3c[nH]c4ccccc34)NC(=O)[C@H](CO)NC(=O)[C@@H](CCN)NC2=O)[C@@H](C)O)CCNC(=O)[C@H]([C@@H](C)O)NC(=O)[C@H](CCN)NC(=O)[C@H](CCN)NC1=O [Ex. 80] (I: H-[Hiv]CY[Dab]E[dDab]SWS[Tle]C[Thr(ol)] / II: [Dab]T[Dab][Dab][Dab][dL]L[Dab][Dab]T; disulfide I:2-I:11; amide I:5-II:N; lactam II:4-II:C) | 0.0625 (≈ 0.0262 µM) | 0.125 (≈ 0.0524 µM) | 0.125 (≈ 0.0524 µM) | 0.0625 (≈ 0.0262 µM) | 0.03125 (≈ 0.0131 µM) | 0.125 (≈ 0.0524 µM) | 0.125 (≈ 0.0524 µM) | 0.125 (≈ 0.0524 µM) | <1
CC(C)C[C@@H]1NC(=O)[C@@H](CC(C)C)NC(=O)[C@H](CCN)NC(=O)[C@@H](NC(=O)[C@H](CCN)NC(=O)[C@@H](NC(=O)[C@H](CCN)NC(=O)CC[C@@H]2NC(=O)[C@H](CCN)NC(=O)[C@H](Cc3ccc(O)cc3)NC(=O)[C@@H](NC(=O)[C@@H](O)C(C)C)CSSC[C@@H](C(=O)N[C@H](CO)[C@@H](C)O)NC(=O)[C@H](C(C)(C)C)NC(=O)[C@H](CCO)NC(=O)[C@H](Cc3c[nH]c4ccccc34)NC(=O)[C@H](CCO)NC(=O)[C@@H](CCN)NC2=O)[C@@H](C)O)CCNC(=O)[C@H]([C@@H](C)O)NC(=O)[C@H](CCN)NC(=O)[C@H](CCN)NC1=O [Ex. 81] (I: H-[Hiv]CY[Dab]E[dDab][hSer]W[hSer][Tle]C[Thr(ol)] / II: [Dab]T[Dab][Dab][Dab][dL]L[Dab][Dab]T; disulfide I:2-I:11; amide I:5-II:N; lactam II:4-II:C) | 0.25 (≈ 0.104 µM) | 0.125 (≈ 0.0518 µM) | 0.125 (≈ 0.0518 µM) | 0.125 (≈ 0.0518 µM) | 0.0625 (≈ 0.0259 µM) | 0.125 (≈ 0.0518 µM) | 0.0625 (≈ 0.0259 µM) | 0.125 (≈ 0.0518 µM) | <1
CC(C)C[C@@H]1NC(=O)[C@@H](CC(C)C)NC(=O)[C@H](CCN)NC(=O)[C@@H](NC(=O)[C@H](CCN)NC(=O)[C@@H](NC(=O)[C@H](CCN)NC(=O)CC[C@@H]2NC(=O)[C@H](CCN)NC(=O)[C@H](Cc3ccc(O)cc3)NC(=O)[C@@H](NC(=O)[C@@H](O)C(C)C)CSSC[C@@H](C(=O)N[C@H](CO)[C@@H](C)O)NC(=O)[C@H](C(C)(C)C)NC(=O)[C@H](CCO)NC(=O)[C@H](Cc3c[nH]c4ccccc34)NC(=O)[C@H]([C@@H](C)O)NC(=O)[C@@H](CCN)NC2=O)[C@@H](C)O)CCNC(=O)[C@H]([C@@H](C)O)NC(=O)[C@H](CCN)NC(=O)[C@H](CCN)NC1=O [Ex. 82] (I: H-[Hiv]CY[Dab]E[dDab]TW[hSer][Tle]C[Thr(ol)] / II: [Dab]T[Dab][Dab][Dab][dL]L[Dab][Dab]T; disulfide I:2-I:11; amide I:5-II:N; lactam II:4-II:C) | 0.25 (≈ 0.104 µM) | 0.125 (≈ 0.0518 µM) | 0.25 (≈ 0.104 µM) | 0.5 (≈ 0.207 µM) | 0.0625 (≈ 0.0259 µM) | 0.25 (≈ 0.104 µM) | 0.0625 (≈ 0.0259 µM) | 0.25 (≈ 0.104 µM) | <1
